Square brackets hold non-standard residues; d marks the D form. Peptide text beside a SMILES is read from it. Nle = CCCC[C@H](N)C(=O)O
Key:
[1] = tested on: Atg5fl/fl LysM-Cre− and Cre+ bone marrow-derived macrophages (BMM); test: IL-1α release (ELISA) from LPS- and IFN-γ-stimulated bone marrow-derived macrophages; type: cell-based, murine; conditions: 12 h; for IL-1α secreted: autophagy-competent Atg5fl/fl LysM-Cre− BMM, LPS and IFN-γ stimulated, 50 μg/ml rapamycin, 10 mM 3-MA or 100 nM Bafilomycin A1
Source text: FIG. 5. Excess cytokine secretion is a cell-autonomous property of autophagy-deficient macrophages and IL-1α hypersecretion by Atg5^fl/fl LysM-Cre^+ macrophages depends on reactive oxygen intermediates and calpain. (A-C) In vitro cytokine (IL-1α, CXCL1, and IL-12p70) release (ELISA) from LPS- and IFN-γ-stimulated Atg5^fl/fl LysM-Cre^− and Cre^+ bone marrow-derived macrophages (BMM). (D) CXCL1 released from LPS- and IFN-γ-stimulated Atg5^fl/fl LysM-Cre^+ BMM in the absence of presence of IL-1RA ([…]). (E) Fraction of 7-AAD^+ BMM after LPS and IFN-γ stimulation in vitro. (F,G) IL-1α and CXCL1 levels (ELISA) in lung homogenates of uninfected Atg5^fl/fl LysM-Cre^− and Cre^+ mice. (H,I) IL-1α (ELISA) released from LPS- and IFN-γ stimulated Atg5^fl/fl LysM-Cre BMM in the presence of 50 μg/ml rapamycin (Rap), 10 mM 3-MA, or 100 nM Bafilomycin A1 (Baf A1) after 12 h of stimulation. (J) IL-1α secretion during inflammasome activation. Atg5^fl/fl LysM-Cre^− and Cre^+ BMM were pretreated overnight with LPS (100 ng/ml) then stimulated for 1 h in the absence or presence of the inflammasome agonist silica (250 μg/ml) in EBSS. (K) IL-1α secretion in the presence of caspase 1 inhibitor YVAD. Atg5^fl/fl LysM-Cre^− and Cre^+ BMM were pretreated overnight with LPS (100 ng/ml) then stimulated for 1 h in the absence or presence of YVAD (50 μM) during inflammasome activation with silica as in J. (L) Effects of caspase 1 siRNA knockdown (immunoblot, left) on IL-1α release (graph, right) from Atg5^fl/fl LysM-Cre^+ BMM. Graph (center), IL-1α release from LPS-stimulated siRNA-treated Atg5^fl/fl LysM-Cre^+ BMM in full media or EBSS (Starv). Graph (right), same as middle graph in full medium only. Casp 1, caspase 1 siRNA: Scr, scrambled, control siRNA. (M) IL-1α release from LPS- and IFN-γ-stimulated Atg5^fl/fl LysM-Cre^+ BMM knocked down with siRNA for inflammasome components ASC and NLRP3. (N,O) ROS inhibition and IL-1 secretion: IL-1α (N) and IL-1β (0) released (ELISA) from LPS- and IFN-γ-stimulated Atg5^fl/fl LysM-Cre^− and Cre^+ BMM in the absence or presence of ROS antagonist APDC (50 μM) after 12 h of incubation. (P) Calpain and […] hypersecretion phenotype. IL-1β (ELISA) released from LPS- and IFN-γ stimulated Atg5^fl/fl LysM-Cre^− and Cre^+ BMM in the absence or presence of calpain inhibitor ALLN (100 μM) after 12 h of stimulation. Data, mean±SE, *p<0.05, **p<0.01, † p>0.05 (t test; n≥3).
(§1) All cells were pretreated with Stain FcX (anti-CD16/32) (Biolegend) before being stained for. […] Caspase 1 activity was measured by flow cytometry using the FLICA caspase 1 reagent (FAM-YVAD-FMK) (Immunochemistry Technologies). […] Secreted cytokines (IL-1αIL-1β CXCL1, CXCL2 and IL-12p70) were measured by ELISA (R&D Systems). […]

[2] = tested on: Atg5fl/fl LysM-Cre− and Cre+ bone marrow-derived macrophages (BMM); test: IL-1β release (ELISA) from LPS- and IFN-γ-stimulated bone marrow-derived macrophages; type: cell-based, murine; conditions: APDC 50 μM, 12 h
Source text: (§2) FIG. 5. Excess cytokine secretion is a cell-autonomous property of autophagy-deficient macrophages and IL-1α hypersecretion by Atg5^fl/fl LysM-Cre^+ macrophages depends on reactive oxygen intermediates and calpain. (A-C) In vitro cytokine (IL-1α, CXCL1, and IL-12p70) release (ELISA) from LPS- and IFN-γ-stimulated Atg5^fl/fl LysM-Cre^− and Cre^+ bone marrow-derived macrophages (BMM). (D) CXCL1 released from LPS- and IFN-γ-stimulated Atg5^fl/fl LysM-Cre^+ BMM in the absence of presence of IL-1RA ([…]). (E) Fraction of 7-AAD^+ BMM after LPS and IFN-γ stimulation in vitro. (F,G) IL-1α and CXCL1 levels (ELISA) in lung homogenates of uninfected Atg5^fl/fl LysM-Cre^− and Cre^+ mice. (H,I) IL-1α (ELISA) released from LPS- and IFN-γ stimulated Atg5^fl/fl LysM-Cre BMM in the presence of 50 μg/ml rapamycin (Rap), 10 mM 3-MA, or 100 nM Bafilomycin A1 (Baf A1) after 12 h of stimulation. (J) IL-1α secretion during inflammasome activation. […]
FIG. 10. […] IL-1β secretion was examined in autophagy-competent Atg5fl/fl LysM-CreBMM and IL-1α secretion was measured in autophagy-deficient Atg5fl/fl LysM-Cre+ BMM. […]
All cells were pretreated with Stain FcX (anti-CD16/32) (Biolegend) before being stained for. […] Caspase 1 activity was measured by flow cytometry using the FLICA caspase 1 reagent (FAM-YVAD-FMK) (Immunochemistry Technologies). […]

TBK-1 = test: IL-1β secretion with pharmacological TBK-1 inhibition (preliminary studies); type: cell-based; conditions: preliminary studies with TBK-1 inhibitor
BMM = test: HMGB1 extracellular release from BMM (immunoblot of culture supernatants); type: cell-based, murine; conditions: BMM stimulated with nigericin; largely diminished in Atg5-deficient BMM
Source text: We tested whether induction of autophagy affected other proteins not connected to proteolytic processing in the inflammasome, such as HMGB1 (high mobility group box 1 protein). HMGB1 is a major pro-inflammatory alarmin or DAMP (damage-associated molecular pattern) normally present in the nucleus (34A). This chromatin-associated nuclear protein (with additional intracellular and extracellular signaling roles), upon exposure to inputs including those that induce autophagy (63A,64A), undergoes a complex set of biochemical and localization changes. In the process, it first translocates from the nucleus into the cytoplasm and then is released from the cytoplasm to act in tissue remodeling signaling (when acting alone) or as an inflammatory mediator (when combined with bacterial agonists or other alarmins such as IL-1β). […] HMGB1, along with additional unconventional substrates, depends on inflammasome for secretion although the protein itself is not subjected to proteolytic processing by caspase 1 (65A-68A).

Atg5fl/fl LysM-Cre+ BMM = test: CXCL1 release (ELISA) from LPS- and IFN-γ-stimulated Atg5fl/fl LysM-Cre+ BMM; type: cell-based, murine; set-up: dose or concentration left out as unconfirmed; conditions: IL-1RA
Source text: as §2, §1

naïve CD4 T cells = test: Ex vivo Th17 polarization of naïve CD4 T cells (intracellular IL-17A, flow cytometry); type: cell-based, mice; conditions: 20 ng/ml IL-1α in combination with 5 ng/ml TGF-β and 20 ng/ml IL-6, day 4
Method: FIG. 9. T cell activation state and IL-1α role in T cell IL-17 polarization. (A,B) CD44 and CD25 expression on CD4 T cells from lungs of uninfected Atg5fl/fl LysM-Cre and Cre+mice. (C-F) Intracellular IL-17A production (day 4; release blocked with monensin) by naïve CD4 T cells polarized in the presence of cytokine cocktails: 5 ng/ml TGF-β and 20 ng/ml IL-6, plus 20 ng/ml IL-1α or 20 ng/ml IL-1β. Dot plot (panel C), levels of IL-17A in unstimulated cells (starting material). Histograms (D,E), IL-17A in naïve CD4 T cells polarized in the presence of TGF-β, IL-6 and IL-1α (panel D) or TGF-β, IL-6 and IL-1β (panel E). (F) Percent of IL-17A+CD4 T cells under respective polarizing conditions. Data: mean±SE; † p>0.05 (t test; n≥3).
Single cell suspensions from whole lungs isolated from naïve Atg5^fl/fl LysM-Cre^+ and Cre^− mice were cultured in RPMI 10% FBS and Cell Stimulation Cocktail (phorbol 12-myristate 13-acetate and ionomycin plus brefeldin A and monensin; eBioscience) for 4 h and analyzed by flow cytometry. […] After 4 days, cells were stimulated with 1× Cell Stimulation Cocktail in the presence of protein transport inhibitors for 5 hours at 37° C. and analyzed by flow cytometry.

Cn1cnc(N)c2ncnc1-2 [3MA, 3-methyladenine]
IL-1α secreted [1]: significantly increased

CCCC[C@@H](C=O)NC(=O)[C@H](CC(C)C)NC(=O)[C@H](CC(C)C)NC(C)=O [ALLN] (Ac-Leu-Leu-[Nle]-aldehyde)
excess IL-1α production ([1]; LPS- and IFN-γ-stimulated Atg5fl/fl LysM-Cre+ BMM, ALLN 100 μM): completely inhibited the excess IL-1α production

N[C@@]1(C(=O)O)CN[C@@H](C(=O)O)C1 [APDC, (2R,4R)-4-aminopyrrolidine-2,4-dicarboxylate]
excessive IL-1α release ([1]; LPS- and IFN-γ-stimulated Atg5fl/fl LysM-Cre+ BMM, APDC 50 μM): abrogated excessive IL-1α | excessive IL-1β release [2]: inhibited excessive IL-1β release

O=C(NCCCNc1nc(Nc2cccc(NC(=O)N3CCCC3)c2)ncc1I)c1cccs1 [BX795]
IL-1β secretion (TBK-1): reduced

CO/C1=C\C(C)=C\[C@@H](C)[C@@H](O)[C@@H](C)C/C(C)=C/C=C/[C@H](OC)[C@@H]([C@@H](C)[C@@H](O)[C@H](C)[C@@]2(O)C[C@@H](O)[C@H](C)[C@@H](C(C)C)O2)OC1=O [bafilomycin A1]
IL-1α secreted [1]: An effect similar to 3MA

CO[C@@H]1C[C@@H](C[C@H]2CC[C@H](C)[C@H]([C@@H](C)C(=O)O)O2)O[C@]2(O[C@](C)([C@H]3CC[C@@](C)([C@@H]4O[C@@H]([C@H]5O[C@@](O)(CO)[C@H](C)C[C@@H]5C)C[C@@H]4C)O3)C[C@H]2C)[C@@H]1C [nigericin]
HMGB1 in culture supernatants (BMM): An HMGB1 band was detected

IL-1RA: IL-1 receptor antagonist (R&D Systems)
CXCL1 levels (Atg5fl/fl LysM-Cre+ BMM): lowered CXCL1 levels

B1: IL-1α: cytokine (R&D Systems) added at 20 ng/ml for T cell polarization (protein, UniProt P01583 113-271, looked up)
Interleukin-1 alpha: SAPFSFLSNVKYNFMRIIKYEFILNDALNQSIIRANDQYLTAAALHNLDEAVKFDMGAYKSSKDDAKITVILRISKTQLYVTAQDEDQPVLLKEMPEIPKTITGSETNLLFFWETHGTKNYFTSVAHPNLFIATKQDYWVCLAGGPPSITDFQILENQA
Th17 polarization (IL-17A+ CD4 T cells) (naïve CD4 T cells): showed a capacity to promote Th17 polarization
